{
  "source": "patent US20250352537A1",
  "about": "“PHARMACEUTICAL COMPOSITIONS OF TRICYCLIC AKR1C3 DEPENDENT KARS INHIBITOR AND METHODS FOR MAKING SAME” (NOVARTIS AG, priority 2022, published 2025)",
  "format_in_all_cases": "physicochemical",
  "key": {"[1]": {"experiment": "Supersaturation / desupersaturation of DMSO solution in FaSSIF-V1", "details": "FaSSIF-V1, 37° C.", "protocol": "FIG. 1 is a an illustration of Compound (I) desupersaturation profiles in FaSSIF-V1 when added as DMSO solution at drug loads from 100 to 2000 ppmw\nThe supersaturation potential of Compound (1) was studied by mixing drug dissolved in 1 mL DMSO into 99 mL FaSSIF-V1 stirred at 37° C. (FIG. 1). At higher drug loads of 500, 1000 or 2000 ppmw (or […]) Compound (1) precipitated practically instantaneously and attained a constant steady state concentration of approx. 20 μg/mL or below within 5 minutes.. At the 90 min final sampling the solids were confirmed to be crystalline Compound (1) by XRPD. At lower drug loads, supersaturation was maintained longer, e.g. approx. 110 μg/mL drug dissolved at 5 min at 200 ppmw drug load and approx. 70 μg/mL drug dissolved till 20 min at 100 ppmw drug load. Situation after desupersaturation was similar as described for higher drug loads."}, "[2]": {"experiment": "Initial stability evaluation of lyophilized solid dispersions (mDSC, UPLC)", "details": "initial purity of Compound (I) 99.3%", "protocol": "The following example illustrates the initial feasibility assessment of an amorphous solid dispersion formulation. An amorphous solid dispersion (ASD) was initially evaluated as a potential formulation for Compound (1). Solid dispersion screening was performed by lyophilization of solid Compound (1) with a polymer. Miscibility trials of Compound (1) were performed with Kollidon® VA64, HPMC-AS-LF, Eudragit® L100-55, and HPMC 603, by conducting a DSC measurement of the lyophilized material to determine if the material was amorphous or crystalline. […] Kollidon® VA64 at both 50% and 40% drug loading recrystallized after 5 weeks. HPMC-AS-LF and Eudragit® L100-55 remained amorphous under stressed conditions. However, HPMC-AS-LF and Eudragit® L100-55 both have significant impurities after 5 weeks until stressed conditions, according to UPLC analysis."}, "[3]": {"experiment": "Hot melt extrusion (HME) thermal stability", "details": "extrusion of compound-polymer mixture at temperatures in excess of 160° C.", "description": "A holt melt extrusion (HME) approach was also attempted."}},
  "data": [
    {"smiles": "O=C1CC2(CCN(C(=O)NCc3ccc(F)cc3)CC2)Nc2ccc(F)cc21", "note": "[Compound (I), 6′-fluoro-N-(4-fluorobenzyl)-4′-oxo-3′,4′-dihydro-1′H-spiro[piperidine-4,2′-quinoline]-1-carboxamide]", "values": [
      {"measurement": "drug dissolved", "setting": "[1]; at 5 min at 200 ppmw drug load", "result": "approx. 110 μg/mL"},
      {"measurement": "steady state concentration", "setting": "[1]; drug loads of 500, 1000 or 2000 ppmw, within 5 minutes", "result": "≤ 20", "unit": "µg/mL"},
      {"measurement": "supersaturation potential", "setting": "[1]; overall", "result": "rather poorly supersaturating"},
      {"measurement": "drug dissolved", "setting": "[1]; till 20 min at 100 ppmw drug load", "result": "approx. 70 μg/mL"},
      {"measurement": "UPLC (%)", "setting": "[2]; 3 weeks 50° C./75% RH", "result": 99.09, "unit": "%"},
      {"measurement": "UPLC (%)", "setting": "[2]; 5 weeks 50° C./75% RH", "result": 99.05, "unit": "%"},
      {"measurement": "stability on hot melt extrusion", "setting": "[3]", "result": "thermal degradation"}
    ]}
  ]
}
